One experiment concerns the target human activated kallikrein enzyme (plasma kallikrein) (Homo sapiens (Human), UniProt P03952). Put plainly: Inhibition of human activated plasma kallikrein, fluorogenic peptide substrate assay, 500 pM enzyme format. Particulars: 500 pM activated kallikrein enzyme, 300 uM Pro-Phe-Arg-7-amido-4-methylcoumarin substrate, 30 min preincubation, 10 min at RT; read-out: Primary Dose Response Assay: Average EC50. It counts as biochemical. The procedure, abridged:
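Buffer 20 mM Tris pH 7.5, EDTA, NaCl, PEG-400, Triton X-100; 300 uM Pro-Phe-Arg-AMC; enzyme–inhibitor preincubation 30 min RT. Format one: 500 pM kallikrein, 10 min RT reaction; format two: 5 pM kallikrein, 18 h RT reaction. Fluorescence read at 460 nm (380 nm excitation).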
human activated kallikrein enzyme (plasma kallikrein), sequence (P03952 391-638): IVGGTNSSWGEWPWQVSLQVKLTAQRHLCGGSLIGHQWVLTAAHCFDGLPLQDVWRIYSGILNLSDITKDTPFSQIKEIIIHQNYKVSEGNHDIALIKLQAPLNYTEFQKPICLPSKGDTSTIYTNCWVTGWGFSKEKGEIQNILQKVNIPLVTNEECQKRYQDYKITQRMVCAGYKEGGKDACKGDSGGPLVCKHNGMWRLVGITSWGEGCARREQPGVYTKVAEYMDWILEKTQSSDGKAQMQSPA
human activated kallikrein enzyme (plasma kallikrein), sequence (P03952 20-390 partner): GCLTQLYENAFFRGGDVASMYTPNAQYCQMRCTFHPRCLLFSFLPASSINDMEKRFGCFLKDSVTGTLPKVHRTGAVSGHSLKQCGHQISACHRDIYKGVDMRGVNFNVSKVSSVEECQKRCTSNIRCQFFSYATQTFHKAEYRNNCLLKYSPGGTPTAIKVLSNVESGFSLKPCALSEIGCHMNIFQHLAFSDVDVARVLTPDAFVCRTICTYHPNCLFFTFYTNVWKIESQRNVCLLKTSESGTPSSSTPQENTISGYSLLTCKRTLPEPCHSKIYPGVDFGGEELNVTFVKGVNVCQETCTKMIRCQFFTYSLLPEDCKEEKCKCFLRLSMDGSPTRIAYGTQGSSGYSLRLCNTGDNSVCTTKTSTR
Take `O=C(NCc1ncn2ccc(Cl)c(F)c12)c1cn(Cc2cc3ccc(C4CC4)cc3[nH]2)nn1` [Example I-235, N-((7-chloro-8-fluoroimidazo[1,5-a]pyridin-1-yl)methyl)-1-((6-cyclopropyl-1H-indol-2-yl)methyl)-1H-1,2,3-triazole-4-carboxamide]: the EC50 lay within 100 to 2000 nM.
Still for that read-out and setting: the figure for `O=C(O)Cc1cc(C2CC2)cn2cc(Cn3cc(C(=O)NCc4ncn5ccc(Br)c(F)c45)cn3)nc12` [Example I-106, 2-(2-((4-(((7-bromo-8-fluoroimidazo[1,5-a]pyridin-1-yl)methyl)carbamoyl)-1H-pyrazol-1-yl)methyl)-6-cyclopropylimidazo[1,2-a]pyridin-8-yl)acetic acid] is less than 1 nM.
The same measure, in the same setting: the figure for `CCOC(=O)c1c(Cn2cc(C(=O)NCc3ncn4ccc(Cl)c(F)c34)nn2)cc2ccc(C3CC3)cn12` [Example I-268, ethyl 2-((4-(((7-chloro-8-fluoroimidazo[1,5-a]pyridin-1-yl)methyl)carbamoyl)-1H-1,2,3-triazol-1-yl)methyl)-6-cyclopropylindolizine-3-carboxylate] is 1 to 10 nM; for `O=C(O)c1cnn(-c2cc(C3CC3)cn3cc(Cn4cc(C(=O)NCc5ncn6ccc(Cl)c(F)c56)nn4)nc23)c1` [Example I-230, 1-(2-((4-(((7-chloro-8-fluoroimidazo[1,5-a]pyridin-1-yl)methyl)carbamoyl)-1H-1,2,3-triazol-1-yl)methyl)-6-cyclopropylimidazo[1,2-a]pyridin-8-yl)-1H-pyrazole-4-carboxylic acid] it is less than 1 nM; for `O=C(NCc1ncn2ccc(Cl)c(F)c12)c1cn(Cc2nc3cc(C4CC4)ccn3n2)nn1` [Example I-178, N-((7-chloro-8-fluoroimidazo[1,5-a]pyridin-1-yl)methyl)-1-((7-cyclopropyl-[1,2,4]triazolo[1,5-a]pyridin-2-yl)methyl)-1H-1,2,3-triazole-4-carboxamide] it is 10 to 100 nM.
The same measure, in the same setting: then `O=C(NCc1ncn2ccc(Br)cc12)c1cnn(Cc2cn3nc(C4CC4)ccc3n2)c1` [Example I-68, N-((7-bromoimidazo[1,5-a]pyridin-1-yl)methyl)-1-((6-cyclopropylimidazo[1,2-b]pyridazin-2-yl)methyl)-1H-pyrazole-4-carboxamide], with less than 1 nM; and `CCc1c(Cl)ccc2nc(Cn3cc(C(=O)NCc4ncn5ccc(Cl)cc45)cn3)cn12` [Example I-34, 1-((6-chloro-5-ethylimidazo[1,2-a]pyridin-2-yl)methyl)-N-((7-chloroimidazo[1,5-a]pyridin-1-yl)methyl)-1H-pyrazole-4-carboxamide], with 10 to 100 nM; and `O=C(NCc1ncn2ccc(Br)c(F)c12)c1cn(Cc2cn3cc(C4CC4)ccc3n2)nn1` [Example I-134, N-((7-bromo-8-fluoroimidazo[1,5-a]pyridin-1-yl)methyl)-1-((6-cyclopropylimidazo[1,2-a]pyridin-2-yl)methyl)-1H-1,2,3-triazole-4-carboxamide], with less than 1 nM.
As to `O=C(NCc1ncn2ccc(Cl)cc12)c1cnn(Cc2cn3cc(C4CC4)cc(C(F)(F)F)c3n2)c1` [Example I-143, N-((7-chloroimidazo[1,5-a]pyridin-1-yl)methyl)-1-((6-cyclopropyl-8-(trifluoromethyl)imidazo[1,2-a]pyridin-2-yl)methyl)-1H-pyrazole-4-carboxamide], the EC50 is less than 1 nM.
Still for that read-out and setting: the figure for `CCOC(=O)CCc1cc(C2CC2)cn2cc(Cn3cc(C(=O)NCc4ncn5ccc(Cl)cc45)cn3)nc12` [Example I-100b, ethyl 3-(2-((4-(((7-chloroimidazo[1,5-a]pyridin-1-yl)methyl)carbamoyl)-1H-pyrazol-1-yl)methyl)-6-cyclopropylimidazo[1,2-a]pyridin-8-yl)propanoate] is less than 1 nM; for `O=C(NCc1ncn2ccc(Cl)cc12)c1cn(Cc2cn3cc(C4CC4)cc(C4(O)COC4)c3n2)nn1` [Example I-153, N-((7-chloroimidazo[1,5-a]pyridin-1-yl)methyl)-1-((6-cyclopropyl-8-(3-hydroxyoxetan-3-yl)imidazo[1,2-a]pyridin-2-yl)methyl)-1H-1,2,3-triazole-4-carboxamide] it is less than 1 nM.
Regarding `O=C(NCc1ncn2ccc(Cl)c(F)c12)c1nnc(Cc2cn3cc(C4CC4)ccc3n2)o1` [Example I-137, N-((7-chloro-8-fluoroimidazo[1,5-a]pyridin-1-yl)methyl)-5-((6-cyclopropylimidazo[1,2-a]pyridin-2-yl)methyl)-1,3,4-oxadiazole-2-carboxamide], the 50% effective concentration (EC50) was less than 1 nM.
On to `N#Cc1cc(C2CC2)cn2cc(Cn3cc(C(=O)NCc4ncn5ccc(Cl)c(F)c45)nn3)nc12` [Example I-149, N-((7-chloro-8-fluoroimidazo[1,5-a]pyridin-1-yl)methyl)-1-((8-cyano-6-cyclopropylimidazo[1,2-a]pyridin-2-yl)methyl)-1H-1,2,3-triazole-4-carboxamide], for which the EC50 is less than 1 nM.
The same measure, in the same setting: the figure for `O=C(NCc1ncn2ccc(Cl)c(F)c12)c1cn(Cc2cn3cc(C4CC4)cc(CO)c3n2)nn1` [Example I-181, N-((7-chloro-8-fluoroimidazo[1,5-a]pyridin-1-yl)methyl)-1-((6-cyclopropyl-8-(hydroxymethyl)imidazo[1,2-a]pyridin-2-yl)methyl)-1H-1,2,3-triazole-4-carboxamide] is less than 1 nM.
Consider `O=C(NCc1ncn2ccc(Cl)c(F)c12)c1cnn(Cc2ccc3nccnc3c2)c1` [Example I-293, N-((7-chloro-8-fluoroimidazo[1,5-a]pyridin-1-yl)methyl)-1-(quinoxalin-6-ylmethyl)-1H-pyrazole-4-carboxamide], for which the EC50 is 10 to 100 nM.
On to `O=C(NCc1ncn2ccc(Br)cc12)c1cn(Cc2cn3cc(C4CC4)ccc3n2)nc1C1CC1` [Example I-85, N-((7-bromoimidazo[1,5-a]pyridin-1-yl)methyl)-3-cyclopropyl-1-((6-cyclopropylimidazo[1,2-a]pyridin-2-yl)methyl)-1H-pyrazole-4-carboxamide], for which the EC50 is less than 1 nM.
Take `CC1(C)CC1c1ccn2cc(Cn3cc(C(=O)NCc4ncn5ccc(Cl)cc45)cn3)nc2c1` (centres unmarked) [Example I-41, N-((7-chloroimidazo[1,5-a]pyridin-1-yl)methyl)-1-((7-(2,2-dimethylcyclopropyl)imidazo[1,2-a]pyridin-2-yl)methyl)-1H-pyrazole-4-carboxamide]: the EC50 was in the range of 10 to 100 nM.
Consider `O=C(NCc1ncn2ccc(Cl)c(F)c12)c1cn(Cc2cn3cc(C4CC4)cc(-n4cnnn4)c3n2)nn1` [Example I-179, N-((7-chloro-8-fluoroimidazo[1,5-a]pyridin-1-yl)methyl)-1-((6-cyclopropyl-8-(1H-tetrazol-1-yl)imidazo[1,2-a]pyridin-2-yl)methyl)-1H-1,2,3-triazole-4-carboxamide], for which the EC50 was less than 1 nM.
Regarding `O=C(NCc1ncn2ccc(Cl)cc12)c1cnn(Cc2cn3c(F)c(C4CC4)ccc3n2)c1` [Example I-59, N-((7-chloroimidazo[1,5-a]pyridin-1-yl)methyl)-1-((6-cyclopropyl-5-fluoroimidazo[1,2-a]pyridin-2-yl)methyl)-1H-pyrazole-4-carboxamide], the concentration giving a half-maximal response (EC50) was less than 1 nM.
Same read-out and setting: then `O=C(NCc1ncn2ccc(Cl)cc12)c1cnn(Cc2cn3cc(C4CC4)cc(CCCO)c3n2)c1` [Example I-107, N-((7-chloroimidazo[1,5-a]pyridin-1-yl)methyl)-1-((6-cyclopropyl-8-(3-hydroxypropyl)imidazo[1,2-a]pyridin-2-yl)methyl)-1H-pyrazole-4-carboxamide], with less than 1 nM.
Same read-out and setting: then `COC(=O)C1(Cc2cc(C3CC3)cn3cc(Cn4cc(C(=O)NCc5ncn6ccc(Cl)c(F)c56)nn4)nc23)CCCC1` [Example I-221a, methyl 1-((2-((4-(((7-chloro-8-fluoroimidazo[1,5-a]pyridin-1-yl)methyl)carbamoyl)-1H-1,2,3-triazol-1-yl)methyl)-6-cyclopropylimidazo[1,2-a]pyridin-8-yl)methyl)cyclopentane-1-carboxylate], with less than 1 nM; and `Cc1c(C2CC2)ccc2nc(Cn3cc(C(=O)NCc4ncn5ccc(Cl)cc45)cn3)cn12` [Example I-13, N-((7-chloroimidazo[1,5-a]pyridin-1-yl)methyl)-1-((6-cyclopropyl-5-methylimidazo[1,2-a]pyridin-2-yl)methyl)-1H-pyrazole-4-carboxamide], with less than 1 nM; and `O=C(NCc1ncn2ccc(Cl)c(F)c12)c1cn(Cc2cn3cc(C4CC4)cc(Cc4nnco4)c3n2)nn1` [Example I-210b, 1-((8-((1,3,4-oxadiazol-2-yl)methyl)-6-cyclopropylimidazo[1,2-a]pyridin-2-yl)methyl)-N-((7-chloro-8-fluoroimidazo[1,5-a]pyridin-1-yl)methyl)-1H-1,2,3-triazole-4-carboxamide], with less than 1 nM.
On to `O=C(NCc1ncn2ccc(Cl)cc12)c1cnn(Cc2cn3cc(C4CC4)cc(CCO)c3n2)c1` [Example I-87, N-((7-chloroimidazo[1,5-a]pyridin-1-yl)methyl)-1-((6-cyclopropyl-8-(hydroxyethyl)imidazo[1,2-a]pyridin-2-yl)methyl)-1H-pyrazole-4-carboxamide], for which the half-maximal effective concentration (EC50) is less than 1 nM.
On to `O=C(NCc1ncn2ccc(Cl)cc12)c1cn(Cc2cn3cc(C4CC4)ccc3n2)nc1C1COC1` [Example I-102, N-((7-chloroimidazo[1,5-a]pyridin-1-yl)methyl)-1-((6-cyclopropylimidazo[1,2-a]pyridin-2-yl)methyl)-3-(oxetan-3-yl)-1H-pyrazole-4-carboxamide], for which the EC50 was less than 1 nM.

The experiment is the same for the next values; noted with them: comparative compounds (Table II); assay format with 500 pM (500 μM in the source) activated kallikrein; read-out: Primary Dose Response Assay: Average EC50.
Take `Cc1ccc2nc(Cn3cc(C(=O)NCc4cnc5ccc(Cl)cn45)cn3)cn2c1` [reference compound]: the half-maximal effective concentration (EC50) is 100 to 2000 nM.

The values are drawn from patent US10730874B2 (Shire Human Genetic Therapies, Inc., priority 2018, dated 2020).
